The text below walks through data of patent EP3789378A1, “PIPERIDINES OR PIPERIDONES SUBSTITUTED WITH UREA AND HETEROARYL” (Grünenthal GmbH, priority 2019, dated 2021).

The first experiment addresses T1, h FPR2 (Homo sapiens, UniProt P25090).
T1 construct: expressed in transfected cells
T1 sequence (P25090 1-351): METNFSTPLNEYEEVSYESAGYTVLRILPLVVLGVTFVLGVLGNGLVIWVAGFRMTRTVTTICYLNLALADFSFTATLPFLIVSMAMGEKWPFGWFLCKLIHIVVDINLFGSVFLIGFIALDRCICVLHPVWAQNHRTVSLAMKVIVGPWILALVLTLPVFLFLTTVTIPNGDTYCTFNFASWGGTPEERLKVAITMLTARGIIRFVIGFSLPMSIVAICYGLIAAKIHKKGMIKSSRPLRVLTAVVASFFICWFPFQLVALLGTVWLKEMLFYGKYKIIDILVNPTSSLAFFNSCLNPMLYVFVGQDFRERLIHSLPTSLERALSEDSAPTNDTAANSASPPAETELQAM
As to the kind of experiment: Agonistic activity in hFPR2-Aq-CHO cells (FLIPR Calcium 5 fluorescence assay). The class given is cell-based. The conditions noted are these: 11 point half log dilution, final assay concentration from 10µM. In a few lines: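 hFPR2-Aq-CHO cells were loaded with Calcium 5 dye for 30 min at 37 °C and equilibrated 10 min at room temperature. Compound (11 points, 10 µM to 100 pM final) was added in HBSS/HEPES/probenecid buffer pH 7.4. Fluorescence rise over basal across 5 min, relative to no-compound wells, gave EC50.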
As a reminder, the EC50 is the concentration needed to bring the measured effect to its halfway point. Turning to `COc1ccc([C@@H]2CN(Cc3ccc(C4CC4)nc3)CC[C@H]2NC(=O)Nc2ccc(Cl)cc2)nc1` (relative stereo) [Ex-65, trans-1-(4-chlorophenyl)-3-[1-[(6-cyclopropylpyridin-3-yl)methyl]-3-(5-methoxypyridin-2-yl)piperidin-4-yl]urea], the EC50 worked out at 0.09 nM. Same read-out and setting: to `CS(=O)(=O)n1ccc(CN2CC[C@@H](NC(=O)Nc3ccc(Cl)cc3)[C@H](c3ccc(Cl)s3)C2)n1` (single isomer, unassigned) [Ex-77, trans-1-(4-chlorophenyl)-3-[3-(5-chlorothiophen-2-yl)-1-[(1-methanesulfonyl-1H-pyrazol-3-yl)methyl]piperidin-4-yl]urea] belongs 0.06 nM; to `COc1ccc([C@@H]2CN(CCO)CC[C@H]2NC(=O)Nc2cc(C)ns2)nc1` (relative stereo) [Ex-122, trans-1-[1-(2-Hydroxy-ethyl)-3-(5-methoxy-pyridin-2-yl)-piperidin-4-yl]-3-(3-methyl-isothiazol-5-yl)-urea], 3 nM. Same read-out and setting: to `COc1ccc([C@@H]2CN(CC3CC(O)C3)CC[C@H]2NC(=O)Nc2ccc(Cl)cc2)nc1` (single isomer, unassigned) [Ex-205, trans-1-(4-chloro-phenyl)-3-[1'-(3-hydroxy-cyclobutylmethyl)-5-methoxy-1',2',3',4',5',6'-hexahydro-[2,3']bipyridinyl-4'-yl]-urea] belongs 4 nM; to `COc1ccc([C@@H]2CN(C(=O)c3ccc(C)nc3)CC[C@H]2NC(=O)Nc2ccc(Cl)cc2)nc1` (single isomer, unassigned) [Ex-55, trans-1-(4-chlorophenyl)-3-[3-(5-methoxypyridin-2-yl)-1-[(6-methylpyridin-3-yl)carbonyl]piperidin-4-yl]urea], 40 nM. As to `COc1ccc([C@@H]2CN(Cc3ccn(S(C)(=O)=O)n3)CC[C@H]2NC(=O)Nc2ccccc2)nc1` (single isomer, unassigned) [Ex-58, trans-3-[1-[(1-methanesulfonyl-1H-pyrazol-3-yl)methyl]-3-(5-methoxypyridin-2-yl)piperidin-4-yl]-1-phenylurea], the EC50 turned out to be 0.4 nM. Still for that read-out and setting: for `COc1ccc([C@@H]2CN(Cc3cc(C)on3)CC[C@H]2NC(=O)Nc2ccc(Cl)cc2)nc1` (single isomer, unassigned) [Ex-29, trans-1-(4-chlorophenyl)-3-[3-(5-methoxypyridin-2-yl)-1-[(5-methyl-1,2-oxazol-3-yl)methyl]piperidin-4-yl]urea] the value was 11 nM; for `COc1cnc([C@@H]2CN(CCCO)CC[C@H]2NC(=O)Nc2ccc(Cl)cc2)c(F)c1` (relative stereo) [Ex-197, trans-1-(4-chloro-phenyl)-3-[3-fluoro-1'-(3-hydroxy-propyl)-5-methoxy-1',2',3',4',5',6'-hexahydro-[2,3']bipyridinyl-4'-yl]-urea], 0.9 nM; for `COc1ccc([C@@H]2CN(CC3CCNCC3)CC[C@H]2NC(=O)Nc2ccc(Cl)cc2)nc1` (single isomer, unassigned) [Ex-124, trans-1-(4-chlorophenyl)-3-(3-(5-methoxypyridin-2-yl)-1-(piperidin-4-ylmethyl)piperidin-4-yl)urea], 0.03 nM. For the compound `O=C(Nc1ccc(Cl)cc1)N[C@@H]1CCN(CCCO)C[C@H]1c1ccc(Cl)s1` (relative stereo) [Ex-105, trans-1-(4-chloro-phenyl)-3-[3-(5-chloro-thiophen-2-yl)-1-(3-hydroxy-propyl)-piperidin-4-yl]-urea], the half-maximal effective concentration (EC50) turned out to be 11 nM.

Staying with this experiment, now noted: agonistic response at 0.1µM.
Take `Cc1cc(NC(=O)N[C@@H]2CCN(c3ccncn3)C[C@H]2c2ccc(Cl)cn2)sn1` (relative stereo) [Ex-17, trans-1-(5-chloro-1'-pyrimidin-4-yl-1',2',3',4',5',6'-hexahydro-[2,3']bipyridinyl-4'-yl)-3-(3-methyl-isothiazol-5-yl)-urea]: the activation at 0.1 µM worked out at 30%.
